From US12071469B2, “Peptide compounds for suppressing inflammation” (Duke University, priority 2011, dated 2024)

What was measured:
Format in all cases: in vivo, mouse
[1] = tested on: mice with intracerebral hemorrhage; test: Rotorod vestibulomotor function after intracerebral hemorrhage (collagenase injection); conditions: 0.05 mg/kg iv at 2 h and 6 h after intracerebral hemorrhage
Protocol: An experimental murine model for intracerebral hemorrhage was also provided. James, et al. (2009) Stroke, 40:632-39. Male mice (age 16-20 weeks) were anesthetized with 4.6% isoflurane in oxygen in an anesthesia induction box for 90 seconds. The trachea was intubated and the lungs mechanically ventilated with 1.6% isoflurane in a 70/30 mixture of nitrogen/oxygen. Body temperature was maintained at 37° C. using an underbody warming system. The animal's head was secured in a stereotactic frame, local anesthetic was injected, and the scalp incised. […]
An experimental procedure for measuring neurological deficits was developed. […] The average time to fall from the rotating cylinder in the latter three trials was recorded as baseline latency. […] Average latency to fall from the rod was recorded, and mice unable to grip the rod were scored with a latency of 0 seconds.
Groups of mice received either an ApoE mimetic peptide (SEQ ID NO:4; 0.05 mg/kg) or carrier (saline) by intravenous tail vein injection a 2 hours and again at 6 hours after intracerebral hemorrhage induced as described in Example 3. Each mouse was tested for vestibulomotor function by rotorod latency measured before and after induced intracerebral hemorrhage as described in Example 3.

[2] = tested on: mice with traumatic brain injury; test: Rotorod vestibulomotor function after traumatic brain injury; conditions: 0.05 mg/kg iv at 2 h and 6 h after traumatic brain injury
Protocol: An experimental murine model for traumatic brain injury was developed. Laskowitz, et al. (2010) J. Neurotrauma, 27:1983-95. Male mice (age 12-14 weeks) were anesthetized with 4.3% isoflurane in oxygen in an anesthesia induction box for 90 seconds. The trachea was intubated and the lungs mechanically ventilated with 1.4% isoflurane in a 50/50 mixture of oxygen and nitrogen. Body temperature was maintained at 37° C. using surface heating/cooling. The top of the skull was exposed by a midline incision to identify anatomical landmarks, and a concave 3-mm metallic disc was secured to the skull surface with an adhesive, directly midline and just caudal to the bregma. The disc diffused the energy of impact and reduced the incidence of depressed skull fracture to less than 10%. After general anesthesia, mice were positioned in a stereotactic device and the skull was exposed. A pneumatic impactor (diameter: 2.0 mm; available from Air-Power, Inc.) discharged at 6.8±0.2 m/s with a head displacement of 3 mm was used to deliver a single midline impact to the disc surface.
An experimental procedure for measuring neurological deficits was developed. An automated rotorod (available from Ugo Basile North America, Inc.) was used to assess vestibulomotor function. On the day before experimental induction of a neurological condition or injury (such as, for example, traumatic brain injury or intracerebral hemorrhage as described above), mice under went two consecutive conditioning trials at a set rotational speed (16 revolutions per minute) for 60 seconds followed by three additional trials with an accelerating rotational speed. The average time to fall from the rotating cylinder in the latter three trials was recorded as baseline latency. After injury, mice under went consecutive daily testing with three trials of accelerating rotational speed (intertribal interval of 15 minutes). Average latency to fall from the rod was recorded, and mice unable to grip the rod were scored with a latency of 0 seconds.
Groups of mice received either an ApoE mimetic peptide (SEQ ID NO:3; 0.05 mg/kg or 0.2 mg/kg) or carrier (saline) by intravenous tail vein injection at 2 hours and again at 6 hours after traumatic brain injury induced as described in Example 3. Each mouse was tested for vestibulomotor function by rotorod latency measured before and after injury, as described in Example 3.
Groups of mice received either an ApoE mimetic peptide (SEQ ID NO:4; 0.05 mg/kg) or carrier (saline) by intravenous tail vein injection at 2 hours and again at 6 hours after traumatic brain injury induced as described in Example 3. Each mouse was tested for vestibulomotor function by rotorod latency measured before and after injury, as described in Example 3. […]

[3] = tested on: mice with middle cerebral artery occlusion (focal ischemia-reperfusion); test: Rotorod vestibulomotor function after modified middle cerebral artery occlusion (MCAO)
From the text: A modified middle cerebral artery occlusion (MCAO) model (Huang et al., (1994) Science, 265:1883-1885; Laskowitz et al., (1997) J. Cereb. Blood Flow Metab., 17:753-758) was used to determine the effect of the mimetic peptides on neurological function after stroke and to evaluate the peptide's efficacy as a therapeutic agent for stroke. The mice were endotracheally intubated after anesthesia induction with 4.6% isoflurane, and the lungs were mechanically ventilated with 1.6% isoflurane in 30% O2/70% N2. Via a midline cervical skin incision, the right common carotid artery was identified. The external carotid artery was ligated and transected. The internal carotid artery was dissected distally until the origin of the pterygopalatine artery was visualized. A 6-0 nylon monofilament with blunted tip lightly coated with silicone was inserted into the proximal external carotid artery stump and advanced 11 mm into the internal carotid artery to occlude the middle cerebral artery. After 90 min, the filament was removed to restore blood perfusion, and the skin incision closed with suture. Isoflurane was discontinued and the mice were extubated upon the recovery of spontaneous respiration. Post-injury mice were placed in an oxygen-enriched environment (FIO2=50%) for 1 hr and then returned to their cages. Rectal temperature was continuously monitored and servoregulated with surface heating/cooling at 37° C. throughout the procedure.
Two groups of 10-12 week old male C57Bl/6J mice, a control group (n=12) and a VR-55-treated group (n=9), received MCAO. […]
An automated Rotorod (Ugo Basile, Comerio, Italy) was used to assess vestibulomotor function, as previously described above. […] The average time to fall from the rotating cylinder in the latter 3 trials was recorded as baseline functional Rotorod latency. […] The average latency to fall from the rod was recorded. […]

Substance: Ac-VSRRR-NH2 [VR-55, Ac-VSRRR-NH2]
- durability of effect on rotorod latency [1]: durable through the five-day testing period
- vestibulomotor performance (rotorod latency) compared to carrier ([1]; FIG. 5): improved vestibulomotor performance
- durability of effect on rotorod latency [2]: durable through the five-day testing period
- vestibulomotor performance (rotorod latency) compared to carrier ([2]; FIG. 3): improved vestibulomotor performance
- functional Rotorod latency compared to control mice ([3]; Day 3 post-injury, 0.05 mg/kg iv at 30 min and 6 hrs after reperfusion): improvement in functional Rotorod latency
- functional Rotorod latency ([3]; Day 3 post-injury, 0.05 mg/kg iv at 30 min and 6 hrs after reperfusion, control mice 161+/−32 sec): 216 ± 26 s
- baseline functional Rotorod latency ([3]; day before MCAO, control mice 217+/−20 sec): 214 ± 22 s
